Structures are written as SMILES.

This assay deals with T1, recombinant IL4I1 (Homo sapiens, UniProt Q96RQ9).
T1 construct: purchased R&D Systems 5684-AO-020
T1 sequence (Q96RQ9 22-567): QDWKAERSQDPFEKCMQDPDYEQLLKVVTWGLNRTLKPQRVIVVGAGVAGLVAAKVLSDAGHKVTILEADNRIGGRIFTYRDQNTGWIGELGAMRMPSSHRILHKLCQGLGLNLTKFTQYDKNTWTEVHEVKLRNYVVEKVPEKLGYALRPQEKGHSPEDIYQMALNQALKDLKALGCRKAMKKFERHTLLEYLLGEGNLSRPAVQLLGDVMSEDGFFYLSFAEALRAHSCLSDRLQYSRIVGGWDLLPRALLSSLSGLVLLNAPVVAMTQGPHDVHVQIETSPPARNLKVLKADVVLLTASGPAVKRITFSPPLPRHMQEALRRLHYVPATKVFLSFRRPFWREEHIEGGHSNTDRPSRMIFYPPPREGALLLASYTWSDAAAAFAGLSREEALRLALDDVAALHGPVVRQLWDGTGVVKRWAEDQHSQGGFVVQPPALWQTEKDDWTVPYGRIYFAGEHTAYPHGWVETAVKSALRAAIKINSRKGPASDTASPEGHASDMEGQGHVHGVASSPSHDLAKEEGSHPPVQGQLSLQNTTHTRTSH
Nature of the assay: IL4I1 Enzymatic Assay (Amplex Red/HRP coupled detection of H2O2, fluorescence). It counts as biochemical. The conditions noted are these: 1 nM recombinant IL4I1; four-hour pre-incubation with compound; 1 mM each Phe, Tyr, Trp; ten-point titration. In a few lines: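 Recombinant IL4I1 (1 nM final) pre-incubated 4 h at ambient temperature with compound (0.5% DMSO) in 50 mM Hepes pH 7.0, 0.005% Tween20; reaction started with 1 mM each Phe/Tyr/Trp plus excess Amplex Red/HRP, run 120 min. H2O2 read as resorufin fluorescence; EC50 from 10-point four-parameter fit.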
Consider `N#CCCn1cc(C(=O)NCc2nnc(-c3ccccc3)s2)nn1` [Example 71, 1-(2-cyanoethyl)-N-((5-phenyl-1,3,4-thiadiazol-2-yl)methyl)-1H-1,2,3-triazole-4-carboxamide], for which the EC50 turned out to be 0.011 µM.

Regarding `CCn1cc(C(=O)NCc2nnc(-c3ccccc3)s2)nn1` [Example 72, 1-ethyl-N-((5-phenyl-1,3,4-thiadiazol-2-yl)methyl)-1H-1,2,3-triazole-4-carboxamide], the EC50 is 0.003 µM.

For the compound `CC(C#N)n1cc(C(=O)NCc2nnc(-c3ccccc3)s2)nn1` (stereo not drawn) [Example 73, 1-(1-cyanoethyl)-N-((5-phenyl-1,3,4-thiadiazol-2-yl)methyl)-1H-1,2,3-triazole-4-carboxamide], the EC50 came to 0.009 µM.

For the compound `N#CCn1cc(C(=O)NCc2nnc(-c3ccccc3)s2)nn1` [Example 74, 1-(cyanomethyl)-N-((5-phenyl-1,3,4-thiadiazol-2-yl)methyl)-1H-1,2,3-triazole-4-carboxamide], the EC50 was 0.014 µM.

Consider `C[C@@H](CO)Cn1cc(C(=O)NCc2nnc(-c3ccccc3)s2)nn1` [Example 75, (R)-1-(3-hydroxy-2-methylpropyl)-N-((5-phenyl-1,3,4-thiadiazol-2-yl)methyl)-1H-1,2,3-triazole-4-carboxamide], for which the EC50 worked out at 0.017 µM.

Regarding `C[C@H](CO)Cn1cc(C(=O)NCc2nnc(-c3ccccc3)s2)nn1` [Example 76, (S)-1-(3-hydroxy-2-methylpropyl)-N-((5-phenyl-1,3,4-thiadiazol-2-yl)methyl)-1H-1,2,3-triazole-4-carboxamide], the EC50 amounted to 0.004 µM.

Regarding `O=C(NCc1nnc(-c2ccccc2)s1)c1cn(CC2CCC2)nn1` [Example 77, 1-(cyclobutylmethyl)-N-((5-phenyl-1,3,4-thiadiazol-2-yl)methyl)-1H-1,2,3-triazole-4-carboxamide], the EC50 amounted to 0.012 µM.

Take `O=C(NCc1nnc(-c2ccccc2)s1)c1cn(CC2CCCC2)nn1` [Example 78, 1-(cyclopentylmethyl)-N-((5-phenyl-1,3,4-thiadiazol-2-yl)methyl)-1H-1,2,3-triazole-4-carboxamide]: the EC50 came to 0.034 µM.

For `O=C(NCc1nnc(-c2ccccc2)s1)c1cn(CC2CCCO2)nn1` (stereo not drawn) [Example 79, N-((5-phenyl-1,3,4-thiadiazol-2-yl)methyl)-1-((tetrahydrofuran-2-yl)methyl)-1H-1,2,3-triazole-4-carboxamide], the EC50 was 0.11 µM.

With `O=C(NCc1nnc(-c2ccccc2)s1)c1cn(CCF)nn1` [Example 80, 1-(2-fluoroethyl)-N-((5-phenyl-1,3,4-thiadiazol-2-yl)methyl)-1H-1,2,3-triazole-4-carboxamide], the EC50 worked out at 0.002 µM.

For `CNC(=O)Cn1cc(C(=O)NCc2nnc(-c3ccccc3)s2)nn1` [Example 81, 1-(2-(methylamino)-2-oxoethyl)-N-((5-phenyl-1,3,4-thiadiazol-2-yl)methyl)-1H-1,2,3-triazole-4-carboxamide], the EC50 came out at 0.006 µM.

As for `CCC(CC)Cn1cc(C(=O)NCc2nnc(-c3ccccc3)s2)nn1` [Example 82, 1-(2-ethylbutyl)-N-((5-phenyl-1,3,4-thiadiazol-2-yl)methyl)-1H-1,2,3-triazole-4-carboxamide], the EC50 was determined as 0.282 µM.

For the compound `O=C(NCc1nnc(-c2ccccc2)s1)c1cn(CC2CCCCO2)nn1` (stereo not drawn) [Example 83, N-((5-phenyl-1,3,4-thiadiazol-2-yl)methyl)-1-((tetrahydro-2H-pyran-2-yl)methyl)-1H-1,2,3-triazole-4-carboxamide], the EC50 was 0.361 µM.

For `N#CCCCn1cc(C(=O)NCc2nnc(-c3ccccc3)s2)nn1` [Example 84, 1-(3-cyanopropyl)-N-((5-phenyl-1,3,4-thiadiazol-2-yl)methyl)-1H-1,2,3-triazole-4-carboxamide], the EC50 stood at 0.052 µM.

Consider `COCCOCCn1cc(C(=O)NCc2nnc(-c3ccccc3)s2)nn1` [Example 85, 1-(2-(2-methoxyethoxy)ethyl)-N-((5-phenyl-1,3,4-thiadiazol-2-yl)methyl)-1H-1,2,3-triazole-4-carboxamide], for which the EC50 came to 0.015 µM.

As usually defined, the EC50 is the concentration at which the effect is half-maximal.

Values taken from patent US20240336608A1, “IL4I1 INHIBITORS AND METHODS OF USE” (Merck Sharp & Dohme LLC, priority 2023, published 2024).
